Results from patent US9493537B2, “Compounds with reduced ring size for use in diagnosing and treating melanoma, including metastatic melanoma and methods related to same” (STC.UNM, priority 2009, dated 2016).
Blank lines part the entries; values can stand above or below the molecule they belong to. Positions of bridges follow the written chain, without caps; N, C: chain ends. Non-standard residues stand in square brackets, D forms with d. Residues, ends and D or L forms follow the SMILES beside them. No end group written: not given here. *: point of attachment. DOTA = O=C(O)CN1CCN(CC(=O)O)CCN(CC(=O)*)CCN(CC(=O)O)CC1; Nle = CCCC[C@H](N)C(=O)O

Assays:
[1] = test system: B16/F1 melanoma; details: mouse, in vivo; cited from earlier work
[2] = test system: B16/F1 melanoma; details: references 19, 20; cited from earlier work
[3] = target: T1, MC1 receptor (Mus musculus, UniProt Q01727); assay: In vitro competitive binding assay with ^125I-Tyr^2-NDP-MSH in B16/F1 melanoma cells; set-up: host or cells: B16/F1 murine melanoma cells; species or system murine
T1 sequence (Q01727 whole entry): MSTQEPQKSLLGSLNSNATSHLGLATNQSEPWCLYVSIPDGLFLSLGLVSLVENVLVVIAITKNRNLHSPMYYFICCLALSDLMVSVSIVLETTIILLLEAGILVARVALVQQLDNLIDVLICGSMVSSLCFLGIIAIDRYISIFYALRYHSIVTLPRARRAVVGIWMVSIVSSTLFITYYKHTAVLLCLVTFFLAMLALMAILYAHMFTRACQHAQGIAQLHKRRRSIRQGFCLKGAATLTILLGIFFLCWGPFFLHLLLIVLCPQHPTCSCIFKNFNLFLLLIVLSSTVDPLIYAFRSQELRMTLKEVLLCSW
Method: B16/F1 cells were harvested and seeded into a 24-well cell culture plate (5×10^5 cells/well) and incubated at 37° C. overnight. […] The reaction medium was aspirated after the incubation. The cells were rinsed twice with 0.5 mL of ice-cold pH 7.4, 0.2% BSA/0.01 M phosphate buffered saline (PBS) and lysed in 0.5 mL of 1 N NaOH for 5 minutes. The activities associated with cells were measured in a Wallac 1480 automated gamma counter (PerkinElmer, N.J.). The IC50 value of the peptide was calculated using Prism software (GraphPad Software, La Jolla, Calif.).
B16/F1 cells in 24-well cell culture plates (5×10^5 cells/well) were incubated at room temperature (25° C.) for 2 h with approximately 60,000 cpm of ^125I-Tyr^2-NDP-MSH in the presence of 10^−12 to 10^−5 M of each peptide in 0.3 mL of binding medium {Dulbecco's Modified Eagle's Medium with 25 mM N-(2-hydroxyethyl)-piperazine-N′-(2-ethanesulfonic acid), pH 7.4, 0.2% bovine serum albumin (BSA), 0.3 mM 1,10-phenathroline}. The medium was aspirated after the incubation. […] The activities associated with cells were measured in a Wallac 1480 automated gamma counter (PerkinElmer, Waltham, Mass.). The IC50 value of each peptide was calculated using Prism software (GraphPad Software, La Jolla, Calif.).

[4] = target: T1, MC1 receptor; details: cited from earlier work
[5] = test system: B16/F1 melanoma; assay: Biodistribution in B16/F1 melanoma-bearing C57 mice; format: in vivo; details: for tumor uptake blocked by NDP-MSH co-injection: 10 μg (6.07 nmol) NDP-MSH
Method: (§1) All the animal studies were conducted in compliance with Institutional Animal Care and Use Committee approval. The mice were housed five animals per cage in sterile micro-isolator cages in a temperature- and humidity-controlled room with a 12-h light/12-h dark schedule. […] C57 mice were subcutaneously inoculated on the right flank with 1×10^6 B16/F1 cells. The weight of tumors reached approximately 0.2 g 10 days post cell inoculation. […] Groups of 5 mice were sacrificed at 0.5, 2, 4 and 24 h post-injection, and tumors and organs of interest were harvested, weighed and counted. Blood values were taken as 6.5% of the whole-body weight. […] The mice were sacrificed at 2 h post-injection. The tumor and organs of interest were harvested, weighed and counted.
(§2) All animal studies were conducted in compliance with Institutional Animal Care and Use Committee approval. The pharmacokinetics of ^111In-DOTA-GGNle-CycMSHhex and ^111In-DOTA-GENle-CycMSHhex were determined in B16/F1 melanoma-bearing C57 female mice (Harlan, Indianapolis, Ind.). The C57 mice were subcutaneously inoculated with 1×10^6 B16/F1 cells on the right flank for each mouse to generate B16/F1 melanomas. Ten days post inoculation, the tumor weights reached approximately 0.2 g. Each melanoma-bearing mouse was injected with 0.037 MBq of ^111In-DOTA-GGNle-CycMSHhex or ^111In-DOTA-GENle-CycMSHhex via the tail vein. Groups of 5 mice were sacrificed at 0.5, 2, 4 and 24 h post-injection, and tumors and organs of interest were harvested, weighed and counted. Blood values were taken as 6.5% of the whole-body weight. The specificities of the tumor uptake of ^111In-DOTA-GGNle-CycMSHhex and ^111In-DOTA-GENle-CycMSHhex were determined by co-injecting 10 μg (6.07 nmol) of unlabeled NDP-MSH which is a linear α-MSH peptide analogue with picomolar MC1 receptor binding affinity.

[6] = In vitro serum stability in mouse serum; format: in vitro ADME; details: 37° C., 24 h
Method: After the incubation, 10 μL of 0.5% EDTA aqueous solution was added into the reaction vial to scavenge potential unbound ^111In^3+ ions. The radiolabeled peptide was purified to single species by Waters RP-HPLC (Milford, Mass.) on a Grace Vydac C-18 reverse phase analytical column (Deerfield, Ill.) using a 20-minute gradient of 18-28% acetonitrile in 20 mM HCl aqueous solution with a flow rate of 1.0 mL/min. Purified peptide sample was purged with N2 gas for 20 minutes to remove the acetonitrile. The pH of final solution was adjusted to 7.4 with 0.1 N NaOH and sterile normal saline for animal studies.
Briefly, 50 μL of ^111InCl3 (37-74 MBq in 0.05 M HCl aqueous solution), 10 μL of 1 mg/mL peptide aqueous solution and 400 μL of 0.5 M NH4OAc (pH 4.5) were added into a reaction vial and incubated at 75° C. for 45 mins. After the incubation, 10 μL of 0.5% EDTA (ethylenediaminetetraacetic acid) aqueous solution was added into the reaction vial to scavenge potential unbound ^111In^3+ ions. The radiolabeled complexes were purified to single species by Waters RP-HPLC (Milford, Mass.) on a Grace Vydac C-18 reverse phase analytical column (Deerfield, Ill.) using the following gradient at a 1 mL/min flowrate. The mobile phase consisted of solvent A (20 mM HCl aqueous solution) and solvent B (100% CH3CN). The gradient was initiated and kept at 82:18 A/B for 3 mins followed by a linear gradient of 82:18 A/B to 72:28 A/B over 20 mins. Then, the gradient was changed from 72:28 A/B to 10:90 A/B over 3 mins followed by an additional 5 mins at 10:90 A/B. Thereafter, the gradient was changed from 10:90 AB to 82:18 AB over 3 mins. Each purified peptide sample was purged with N2 gas for 20 mins to remove the acetonitrile. The pH of the final solution was adjusted to 7.4 with 0.1 N NaOH and sterile saline for animal studies. In vitro serum stability of ^111In-DOTA-GGNle-CycMSHhex and ^111In-DOTA-GENle-CycMSHhex were determined by incubation in mouse serum at 37° C. for 24 h and monitored for degradation by RP-HPLC.

[7] = target: MC1 receptor (Homo sapiens, UniProt Q01726); details: references 25, 26; cited from earlier work
Sequence of MC1 receptor (Homo sapiens, UniProt Q01726) (Q01726 whole entry): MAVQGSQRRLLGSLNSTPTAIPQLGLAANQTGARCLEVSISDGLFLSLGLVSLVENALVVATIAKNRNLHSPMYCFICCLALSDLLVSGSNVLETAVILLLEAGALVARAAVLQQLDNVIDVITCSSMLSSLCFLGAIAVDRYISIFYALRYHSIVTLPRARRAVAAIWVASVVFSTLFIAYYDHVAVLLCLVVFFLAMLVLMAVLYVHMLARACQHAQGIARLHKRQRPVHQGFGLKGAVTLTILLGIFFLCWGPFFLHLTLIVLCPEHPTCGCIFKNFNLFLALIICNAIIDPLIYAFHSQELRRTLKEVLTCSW

[8] = Biodistribution in B16/F1 melanoma-bearing C57 mice; format: in vivo; details: female, C57, mouse, iv, 0.037 MBq, total radioactivity; for tissue to tissue ratio at 4 h: 4 h post-injection
Method: as §1, §2

[9] = Metabolites in urine and melanoma by RP-HPLC; format: in vivo, C57 mice; details: 2 h post-injection
Method: The mouse used for the imaging study (2 h post-injection) described above was euthanized and the urine was collected for identifying the metabolites. The urinary sample was centrifuged at 16,000 g for 5 min prior to the HPLC analysis. The radioactive metabolite in the urine was analyzed by injecting aliquots of urine into the HPLC. A 20-minute gradient of 18-28% acetonitrile/20 mM HCl was used for the urine analysis.
Both melanoma and urine were collected from the mouse used for SPECT/CT imaging to analyze the metabolites of ^111In-DOTA-GGNle-CycMSHhex in melanoma and urine. The tumor was homogenized by a VWR homogenizer for 5 mins. Equal volume of ethanol was added into the tumor sample. The tumor sample was vortexed and then centrifuged at 16,000 g for 5 mins. The supernatant was transferred into a glass test tube and purged with N2 gas for 20 mins to remove the ethanol. Aliquots of the supernatant were injected into HPLC. The urinary sample was directly centrifuged at 16,000 g for 5 mins prior to the HPLC analysis. Thereafter, aliquots of the urine were injected into HPLC. The HPLC gradient described above was used for the analyses of metabolites.

Molecule: {DOTA}-GEK[Nle]EH[dF]RWGRPVD (lactam 3-14) [^111In-DOTA-GlyGlu-CycMSH, reference compound]
tumor radioactivity at 2 h remaining in tumors at 24 h [1]: 22.8%
visualization of flank primary and pulmonary metastatic melanoma lesions by SPECT/CT [2]: clearly visualized

lower receptor binding affinity than DOTA-GGNle-CycMSHhex and DOTA-GENle-CycMSHhex [3]: at least 78 fold
Molecule: CCCC[C@H](NC(=O)CN1CCN(CC(=O)O)CCN(CC(=O)O)CCN(CC(=O)O)CC1)C(=O)NCC(=O)N[C@@H](CCC(=O)O)C(=O)N[C@H]1CC(=O)NCCCC[C@@H](C(N)=O)NC(=O)[C@H](Cc2c[nH]c3ccccc23)NC(=O)[C@H](CCCNC(=N)N)NC(=O)[C@@H](Cc2ccccc2)NC(=O)[C@H](Cc2c[nH]cn2)NC1=O [DOTA-NleGE-CycMSHhex] ({DOTA}-[Nle]GEDH[dF]RWK-NH2; lactam 4-9)

Molecule: [Nle^4, D-Phe^7]-α-MSH [NDP-MSH]
affinity for the MC1 receptor [4]: picomolar

tumor uptake blocked by NDP-MSH co-injection ([5]; 2 h post-injection): 95.6%
Kidneys uptake ([5]; 0.5 h post-injection): 9.06±2.20 % ID/g
Tumor/Skin uptake ratio ([5]; 0.5 h post-injection): 7.21
Kidneys uptake ([5]; 2 h post-injection): 5.54±0.63 % ID/g
Tumor/Skin uptake ratio ([5]; 2 h post-injection): 24.30
Tumor/Skin uptake ratio ([5]; 4 h post-injection): 44.17
Tumor/Skin uptake ratio ([5]; 24 h post-injection): 27.50
serum stability by RP-HPLC [6]: stable
Molecule: CCCC[C@H](NC(=O)[C@H](CCC(=O)O)NC(=O)CNC(=O)CN1CCN(CC(=O)O)CCN(CC(=O)O)CCN(CC(=O)O)CC1)C(=O)N[C@H]1CC(=O)NCCCC[C@@H](C(N)=O)NC(=O)[C@H](Cc2c[nH]c3ccccc23)NC(=O)[C@H](CCCNC(=N)N)NC(=O)[C@@H](Cc2ccccc2)NC(=O)[C@H](Cc2c[nH]cn2)NC1=O [^111In-DOTA-GENle-CycMSHhex, metal not drawn] ({DOTA}-GE[Nle]DH[dF]RWK-NH2; lactam 4-9)

Molecule: Ac-Nle-c[Asp-His-DPhe-Arg-Trp-Lys(CONH2)] [MT-II]
MC1 receptor binding affinity compared with the native α-MSH peptide [7]: higher
MC1 receptor dissociation rate compared with the native α-MSH peptide [7]: slower

tumor uptake blocked by NDP-MSH co-injection ([5]; 2 h post-injection): Approximately 98%
Kidneys uptake ([5]; 0.5 h post-injection): 15.19±2.75 % ID/g
Tumor uptake ([5]; 0.5 h post-injection): 18.39±2.22 % ID/g
Tumor/Skin uptake ratio ([5]; 0.5 h post-injection): 8.51
tumor uptake, times that of ^111In-DOTA-GENle-CycMSHhex ([5]; 0.5 h post-injection): 2 times
Kidneys uptake ([5]; 2 h post-injection): 6.84±0.92 % ID/g
Tumor uptake ([5]; 2 h post-injection): 19.05±5.04 % ID/g
Tumor/Skin uptake ratio ([5]; 2 h post-injection): 70.56
tumor uptake, times that of ^111In-DOTA-GENle-CycMSHhex ([5]; 2 h post-injection): 2.5 times
Tumor uptake ([5]; 4 h post-injection): 18.6±3.56 % ID/g
Tumor/Liver uptake ratio ([5]; 4 h post-injection): 31.0
Tumor/Skin uptake ratio ([5]; 4 h post-injection): 68.89
tumor uptake, times that of ^111In-DOTA-GENle-CycMSHhex ([5]; 4 h post-injection): 3 times
Tumor uptake ([5]; 24 h post-injection): 6.77±0.84 % ID/g
Tumor/Skin uptake ratio ([5]; 24 h post-injection): 26.04
tissue uptake at 2 h ([8]; liver, 2 h post-injection, read-out: Liver uptake): < 0.61 %ID/g
tissue to tissue ratio at 4 h ([8]; tumor and kidney, tumor/kidney uptake ratio, times that of ^111In-DOTA-Nle-CycMSHhex): 1.61
tissue to tissue ratio at 2 h ([8]; tumor and kidneys, tumor/kidney uptake ratio, times that of ^111In-DOTA-Nle-CycMSHhex, 2 h post-injection): 1.37
tissue to tissue ratio at 4 h ([8]; tumor and liver, tumor/liver uptake ratio, times that of ^111In-DOTA-Nle-CycMSHhex): 3.13
serum stability by RP-HPLC [6]: stable
melanoma metabolites by HPLC ([9]; tumor): remained intact
urinary metabolites by HPLC ([9]; urine): remained intact
Molecule: CCCC[C@H](NC(=O)CNC(=O)CNC(=O)CN1CCN(CC(=O)O)CCN(CC(=O)O)CCN(CC(=O)O)CC1)C(=O)N[C@H]1CC(=O)NCCCC[C@@H](C(N)=O)NC(=O)[C@H](Cc2c[nH]c3ccccc23)NC(=O)[C@H](CCCNC(=N)N)NC(=O)[C@@H](Cc2ccccc2)NC(=O)[C@H](Cc2c[nH]cn2)NC1=O [^111In-DOTA-GGNle-CycMSHhex, metal not drawn] ({DOTA}-GG[Nle]DH[dF]RWK-NH2; lactam 4-9)
